Source: US20110054031A1, “Ophthalmic NSAIDS as Adjuvants” (ISTA Pharmaceuticals, Inc., priority 2008, published 2011)

What was measured:
COX-2 [1] = target: T1, COX-2 (Homo sapiens, UniProt P35354); conditions: cited from earlier work
T1 sequence (P35354 18-604): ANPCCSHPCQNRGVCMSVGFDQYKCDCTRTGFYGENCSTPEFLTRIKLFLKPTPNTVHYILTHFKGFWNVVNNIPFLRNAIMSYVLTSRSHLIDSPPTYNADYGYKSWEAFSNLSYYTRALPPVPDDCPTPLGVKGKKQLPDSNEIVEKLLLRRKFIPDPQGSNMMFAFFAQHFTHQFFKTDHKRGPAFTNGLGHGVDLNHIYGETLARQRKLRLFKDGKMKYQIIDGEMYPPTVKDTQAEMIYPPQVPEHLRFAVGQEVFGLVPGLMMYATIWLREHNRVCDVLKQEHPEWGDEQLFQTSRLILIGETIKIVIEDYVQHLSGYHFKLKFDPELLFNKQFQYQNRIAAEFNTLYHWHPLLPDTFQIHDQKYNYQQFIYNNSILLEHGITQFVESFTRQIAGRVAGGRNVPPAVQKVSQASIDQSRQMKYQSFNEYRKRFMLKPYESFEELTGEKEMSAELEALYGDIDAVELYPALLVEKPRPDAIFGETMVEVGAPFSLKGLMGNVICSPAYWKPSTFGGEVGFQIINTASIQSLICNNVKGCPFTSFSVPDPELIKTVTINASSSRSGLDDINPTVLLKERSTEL

COX-2 [2] = target: T1, COX-2; test: COX-2 enzyme inhibition (Table 1, relative potency of ocular NSAIDs); format: biochemical; conditions: ratio of IC50 values
Text: NSAIDs vary in their relative potency against COX-1 and COX-2. […] Several in vitro assays are used to determine IC50 values, making the values dependent upon the animal model (tissue and stimulus) used in the experiment and variable between laboratories. Thus, it is important that the assay type is defined when making comparisons between IC50 measurements.

COX-1 = COX-1 (Homo sapiens, UniProt P23219); conditions: cited from earlier work
[3] = target: T2, COX-2 purified from rabbit alveolar macrophage (Oryctolagus cuniculus, UniProt O02768); conditions: cited from earlier work
T2 construct: from tissue; host or cells: rabbit alveolar macrophage
T2 sequence (O02768 18-604): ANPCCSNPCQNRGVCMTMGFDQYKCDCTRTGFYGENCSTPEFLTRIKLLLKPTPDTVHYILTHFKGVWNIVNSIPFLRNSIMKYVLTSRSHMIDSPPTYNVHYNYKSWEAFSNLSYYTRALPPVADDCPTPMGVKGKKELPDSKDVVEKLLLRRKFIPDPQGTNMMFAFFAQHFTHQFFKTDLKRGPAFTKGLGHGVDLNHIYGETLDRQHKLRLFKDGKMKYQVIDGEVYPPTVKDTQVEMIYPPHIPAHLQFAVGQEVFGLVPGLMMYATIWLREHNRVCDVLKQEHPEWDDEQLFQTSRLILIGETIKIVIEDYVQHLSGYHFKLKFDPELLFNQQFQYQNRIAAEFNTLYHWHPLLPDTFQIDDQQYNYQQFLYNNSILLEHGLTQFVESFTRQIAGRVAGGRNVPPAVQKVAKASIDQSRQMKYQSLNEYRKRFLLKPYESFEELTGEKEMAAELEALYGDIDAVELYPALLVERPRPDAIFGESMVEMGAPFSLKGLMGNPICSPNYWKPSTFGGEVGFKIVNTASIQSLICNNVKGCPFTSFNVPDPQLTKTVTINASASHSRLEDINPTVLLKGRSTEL

[4] = eye drops; cited from earlier work
[5] = tested on: choroidal neovascularization (CNV); test: Laser photocoagulation-induced choroidal neovascularization in mice; format: in vivo, C57BL/6J mice; conditions: 2 weeks of treatment after laser burn, versus saline, BF 0.1% topical 4 μL four times per day, sVEGFR-1/Fc 250 ng
Method: Methods: Six-week female C57BL/6J mice received laser burns with 514-argon laser at the posterior retina; 19 mice with successful burns were randomly assigned to 1 of 3 treatment groups: BF 0.1%, saline with or without 250 ng sVEGFR-1/Fc immediately after laser burn. Mice were treated with 4 μL of BF 0.1% or saline four times per day for 2 weeks. Then deeply anaesthetized mice were perfused with 50 mg/mL flourescein-labeled dextran, eyes were enucleated and fixed in buffered formalin. Flat mounts of the RPE-choroid-sclera were observed by fluorescence microscope. Total area of hyperfluorescent neovascualature was measured using image-analysis software

prostaglandin synthesis = conditions: in vitro, relative to indomethacin; cited from earlier work
human recombinants COX-2 = target: T3, human recombinants COX-2 (Homo sapiens, UniProt P35354); conditions: relative to ketorolac; cited from earlier work
T3 sequence (P35354 18-604): T1 sequence (P35354 18-604)

[6] = cited from earlier work

Chain of COX-1 (P23219 24-599): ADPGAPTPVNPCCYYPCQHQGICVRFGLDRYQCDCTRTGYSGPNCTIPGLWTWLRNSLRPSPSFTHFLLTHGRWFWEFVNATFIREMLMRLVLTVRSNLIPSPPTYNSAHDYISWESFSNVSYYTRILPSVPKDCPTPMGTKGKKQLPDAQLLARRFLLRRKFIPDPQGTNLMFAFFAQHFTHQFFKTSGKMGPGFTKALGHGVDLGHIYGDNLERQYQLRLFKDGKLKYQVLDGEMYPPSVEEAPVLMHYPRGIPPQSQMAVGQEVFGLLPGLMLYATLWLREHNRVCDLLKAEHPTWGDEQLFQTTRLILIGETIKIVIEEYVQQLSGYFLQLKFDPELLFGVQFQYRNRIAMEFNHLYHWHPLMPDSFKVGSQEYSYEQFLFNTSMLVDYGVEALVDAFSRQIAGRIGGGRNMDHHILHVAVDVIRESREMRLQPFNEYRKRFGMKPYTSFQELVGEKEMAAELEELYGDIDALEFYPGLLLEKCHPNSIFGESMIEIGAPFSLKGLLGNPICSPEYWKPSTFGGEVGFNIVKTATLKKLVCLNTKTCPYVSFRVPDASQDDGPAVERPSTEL

NC(CO)(CO)CO.O=C(c1ccccc1)c1ccc2n1CCC2C(=O)O (racemic) [ketorolac, (±)-5-benzoyl-2,3-dihydro-1H pyrrolizine-1-carboxylic acid, 2-amino-2-(hydroxymethyl)-1,3-propanediol salt (1:1)]
IC50 (COX-2 [1]): 120 nM
Ratio COX-1/COX-2 (COX-2 [2]): 0.167
IC50 (COX-1): 20 nM

Nc1c(CC(=O)[O-])cccc1C(=O)c1ccc(Br)cc1.Nc1c(CC(=O)[O-])cccc1C(=O)c1ccc(Br)cc1.O.O.O.[Na+].[Na+] [bromfenac, sodium 2-amino-3-(4-bromobenzoyl)phenylacetate sesquihydrate]
IC50 (COX-2 [1]): 23 nM
inhibitory effect on COX-2, times greater than amfenac ([3]; relative to amfenac): 6.5 times
inhibitory effect on COX-2, times greater than diclofenac ([3]; relative to diclofenac): 3.7 times
stability in aqueous solution [4]: stable for a long period of time
reduction of area of choroidal neovascularization (CNV lesions) [5]: 71%
inhibition of prostaglandin synthesis, times greater than indomethacin (prostaglandin synthesis): approximately 12 times
inhibitory effect on COX-2, times more potent than ketorolac (human recombinants COX-2): 18 times

NC(=O)Cc1cccc(C(=O)c2ccccc2)c1N [nepafenac, 2-amino-3-benzoyl-benzeneacetamide]
IC50 (COX-2 [1]): 150 nM
Ratio COX-1/COX-2 (COX-2 [2]): 1.67
IC50 (COX-1): 250 nM

Lucentis: recombinant humanized IgG1 kappa isotype monoclonal antibody fragment designed for intravitreal use
rate of arterial thromboembolic events ([6]; Lucentis clinical trials): < 4%
serious adverse reactions related to the intravitreal injection procedure ([6]; endophthalmitis, rhegmatogenous retinal detachments, iatrogenic traumatic cataracts): < 0.1 % of injections
time after intravitreal injection at which increases in intraocular pressure were noted ([6]; human, in vivo): ≤ 60 min
other serious ocular adverse reactions ([6]; intraocular inflammation and increased intraocular pressure): < 2 % of patients
